From PubChem BioAssay (NCI) come the findings set out here.

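Cultured in 96-well plates, cells were exposed to test compound for 48 hours across five concentrations. Definition used: TGI = concentration required for complete inhibition of growth.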

Some test systems named below: DU-145 prostate; HL-60(TB) leukemia; HOP-92 NSCLC; HS 578T breast; MDA-MB-231 breast; NCI-H226 lung; NCI-H23 lung; OVCAR-3 ovarian; SK-MEL-28 melanoma; SR leukemia; UACC-257 melanoma.
Holding throughout (experiment): growth of human tumour cells (NCI), 48 h

As for `O=c1c(F)cn(Cc2c(Cl)cccc2Cl)c(=O)n1Cc1c(Cl)cccc1Cl`, the TGI was over 100 µM in the assay on DU-145 prostate; over 31.6 µM in the assay with HL-60(TB) leukemia; over 31.6 µM with HOP-92 NSCLC; over 31.6 µM in the assay on HS 578T breast; over 31.6 µM in the assay on MDA-MB-231 breast; over 100 µM with NCI-H226 lung. Also, the TGI in the assay with NCI-H23 lung, with OVCAR-3 ovarian, in the assay on SK-MEL-28 melanoma, in the assay with SR leukemia and in the assay with UACC-257 melanoma was over 31.6 µM throughout.

Take `COc1ccc(C2c3cc4c(cc3OC3(OC)COC(=O)C23)OCO4)c(OC)c1` (stereo not given): the TGI with DU-145 prostate was over 100 µM; with HL-60(TB) leukemia it was 9.31 µM; in the assay with HOP-92 NSCLC, 97.6 µM; with HS 578T breast, 27.1 µM; with MDA-MB-231 breast, 99.5 µM; with NCI-H226 lung, over 100 µM. Moreover, the TGI is over 100 µM in the assay with NCI-H23 lung; over 63 µM in the assay on OVCAR-3 ovarian; over 100 µM with SK-MEL-28 melanoma; over 100 µM in the assay with SR leukemia; over 100 µM in the assay on UACC-257 melanoma.

On to `COCOC1/C=C/CCCCC(=O)C(C)C#CC1` (stereo not given), for which the TGI in the assay on DU-145 prostate is 25.4 µM; in the assay on HL-60(TB) leukemia it was 4.33 µM; in the assay on HOP-92 NSCLC, 8.46 µM; in the assay on HS 578T breast, over 73.7 µM; in the assay on MDA-MB-231 breast, 15.6 µM; in the assay with NCI-H226 lung, 35.3 µM. The TGI in the assay on NCI-H23 lung worked out at 16.3 µM; in the assay with OVCAR-3 ovarian it was 10.9 µM; in the assay on SK-MEL-28 melanoma, 25.4 µM; in the assay with SR leukemia, 8.02 µM; in the assay on UACC-257 melanoma, 19.5 µM.

Consider `O=C1NC2(CCN(CCc3ccccc3)CC2)Oc2ccccc21`, for which the TGI is over 100 µM in the assay on DU-145 prostate; over 100 µM in the assay with HL-60(TB) leukemia; 69.4 µM in the assay with HOP-92 NSCLC; 50.7 µM in the assay with HS 578T breast; over 100 µM with MDA-MB-231 breast; over 100 µM in the assay on NCI-H226 lung. The TGI with NCI-H23 lung, with OVCAR-3 ovarian, with SK-MEL-28 melanoma, in the assay with SR leukemia and in the assay on UACC-257 melanoma was over 100 µM each time.

On to `CCCCCCc1cc2cc(-c3cn4ccsc4n3)c(=O)oc2cc1O`, for which the TGI is over 100 µM with DU-145 prostate; over 100 µM with HL-60(TB) leukemia; over 100 µM in the assay with HOP-92 NSCLC; over 77 µM with HS 578T breast; over 100 µM in the assay on MDA-MB-231 breast; over 100 µM with NCI-H226 lung. For the same molecule, the TGI in the assay with NCI-H23 lung is over 100 µM; in the assay on OVCAR-3 ovarian it was over 100 µM; with SK-MEL-28 melanoma, over 35.9 µM; with SR leukemia, over 100 µM; in the assay on UACC-257 melanoma, over 100 µM.

Consider `Cc1ccc(S(=O)(=O)N2C3C=CC(C3)[C@@H]2C(Cl)(Cl)Cl)cc1` (stereo not given in full), for which the TGI was over 81.2 µM with DU-145 prostate; over 47 µM in the assay with HL-60(TB) leukemia; 38.1 µM in the assay on HOP-92 NSCLC; 41.3 µM in the assay on HS 578T breast; 33.3 µM with MDA-MB-231 breast; 60.9 µM in the assay with NCI-H226 lung. For the same molecule, the TGI was over 100 µM in the assay on NCI-H23 lung; 25.3 µM in the assay with OVCAR-3 ovarian; 57.2 µM in the assay on SK-MEL-28 melanoma; 43.2 µM with SR leukemia; 60.5 µM in the assay with UACC-257 melanoma.

On to `COC(=O)CC(C)(NS(=O)c1ccc(C)cc1)c1ccccc1` (stereo not given), for which the TGI with DU-145 prostate, with HL-60(TB) leukemia, in the assay on HOP-92 NSCLC, in the assay on HS 578T breast, in the assay with MDA-MB-231 breast and in the assay with NCI-H226 lung was over 100 µM throughout. For the same molecule, the TGI in the assay on NCI-H23 lung, in the assay on OVCAR-3 ovarian, in the assay on SK-MEL-28 melanoma, in the assay with SR leukemia and in the assay with UACC-257 melanoma was over 100 µM each time.

For the molecule `C/C(=N\NC(N)=S)c1ccc2c(c1)Sc1ccccc1O2`, the TGI was over 100 µM in the assay with DU-145 prostate; over 100 µM in the assay on HL-60(TB) leukemia; 28 µM in the assay with HOP-92 NSCLC; over 100 µM with HS 578T breast; over 100 µM in the assay on MDA-MB-231 breast; over 100 µM with NCI-H226 lung. Moreover, the TGI in the assay on NCI-H23 lung is 79.1 µM; in the assay with OVCAR-3 ovarian it was 4.52 µM; with SK-MEL-28 melanoma, 69.9 µM; in the assay with SR leukemia it was over 100 µM; in the assay with UACC-257 melanoma, over 100 µM.

Take `C(=C/CCCN1O[C@@H](CCCCCCCCc2cccnc2)[C@H]2CCC[C@H]21)/CCCCCCCCCc1cccnc1`: the TGI with DU-145 prostate is over 100 µM; in the assay with HL-60(TB) leukemia, 23 µM; with HOP-92 NSCLC, 28.1 µM; in the assay on HS 578T breast it was over 100 µM; in the assay with MDA-MB-231 breast, 36.9 µM; in the assay on NCI-H226 lung it was 36.8 µM. Also, the TGI with NCI-H23 lung was 61.7 µM; with OVCAR-3 ovarian, 36.1 µM; in the assay with SK-MEL-28 melanoma it was 48.7 µM; in the assay with SR leukemia, 51.5 µM; in the assay on UACC-257 melanoma, 41.7 µM.

Consider `CC1=C/C(=N\NC(N)=S)C(C(O)(C(F)(F)F)C(F)(F)F)C(C)(C)C1` (stereo not given), for which the TGI in the assay with DU-145 prostate, with HL-60(TB) leukemia, with HOP-92 NSCLC, in the assay on HS 578T breast, with MDA-MB-231 breast and with NCI-H226 lung was over 10 µM in each case. In addition, the TGI in the assay with NCI-H23 lung, with OVCAR-3 ovarian, with SK-MEL-28 melanoma, with SR leukemia and in the assay with UACC-257 melanoma was over 10 µM in each case.
